Assay results as given in ChEMBL document CHEMBL1132045, “New growth hormone secretagogues: C-terminal modified sulfonamide-analogues of NN703” (Bioorg Med Chem Lett, 1999).

Organism: Rattus norvegicus
Experiment: Compound was tested in vitro for growth hormone release in rat pituitary model
Format: functional

Row | Structure (SMILES) | EC50
1 | CN(C(=O)[C@@H](Cc1ccc2ccccc2c1)N(C)C(=O)/C=C/CC(C)(C)N)[C@H](Cc1cccs1)CN(C)S(C)(=O)=O | 3 nM
2 | CC(=O)NC[C@@H](Cc1ccccc1)N(C)C(=O)[C@@H](Cc1ccc2ccccc2c1)N(C)C(=O)/C=C/CC(C)(C)N | 25 nM
3 | CN(C(=O)[C@@H](Cc1ccc2ccccc2c1)N(C)C(=O)/C=C/CC(C)(C)N)[C@@H](CNC(=O)CCCO)Cc1ccccc1 | 34 nM
4 | CN(C(=O)[C@@H](Cc1ccc2ccccc2c1)N(C)C(=O)/C=C/CC(C)(C)N)[C@@H](CNS(C)(=O)=O)Cc1ccccc1 | 2.5 nM
5 | CNC(=O)[C@@H](Cc1ccccc1)N(C)C(=O)[C@@H](Cc1ccc2ccccc2c1)N(C)C(=O)/C=C/CC(C)(C)N [TABIMORELIN] | 2.7 nM
